The subject of assay [1] is T cell clone BDC-2.5. Put plainly: IFNγ production by T cell clone in antigen assay (ELISA). The assay is classed as cell-based, NOD mouse. The following applies: peptide or preparation as antigen. From the text:
(§1) The T cell clones are maintained in culture by periodic re-stimulation with irradiated NOD splenocytes and islet cells or β-membrane. To assay for antigen, resting responder T cells (i.e., for example, the cells at the end of the two-week restimulation period) are co-cultured for 24 hr with elicited peritoneal macrophages (PEC) as APC and either a test sample or control antigen. Control antigen will be in the form of islet cells or the whole-cell membrane fraction (i.e., for example, a β-membrane fraction). As described above, unlysed β-membrane is stored in aliquots at −80° C. for this purpose. Negative controls include responder cells alone and responders plus APC.
(§2) At the end of the culture period, supernatants are collected from the cultures and IFNγ production is measured by ELISA. Wells positive for IFNγ are indicative of T cells responding to antigen; the amount of cytokine produced is calculated from a standard curve and is directly proportional to the amount of antigen present.
(§3) Antigenicity of islet cells, cellular and biochemical fractions, peptides, or insect cells expressing IA^g7-peptide constructs, was assessed through responses of T cell clones or hybridomas made by fusing T cell clones to the TCR^− version of T cell lymphoma, BW5147. White et al., “Two better cell lines for making hybridomas expressing specific T cell receptors” J Immunol 143:1822-1825 (1989). T cell clone cultures typically contained 2×10^4 responder T cells, 2.5×10^4 NOD peritoneal exudate cells (PEC) as APC, and antigen (SEC/IEX fractions, peptides, islet cells); all assays were performed with β-Mem as a positive control. IFNγ was measured by ELISA of culture supernatants. For cultures with T cell hybridomas, antigen/MHC activation was assessed by IL-2 production measured by a bioassay using the HT-2 T cell line. Walker et al., “Antigenspecific. I region-restricted interactions in vitro between tumor cell lines and T cell hybridomas” J Immunol 128:2164-2169 (1982). Synthetic peptides were either produced in the Molecular Resource Center at National Jewish Health or obtained from CHI Scientific, Maynard, Mass.

Assay [2] deals with T cell clone BDC-10.1. The description is as above. The assay is classed as cell-based, NOD mouse. The following applies: peptide or preparation as antigen.
Description: as §1, §2, §3

The next assay deals with T cell clone BDC-5.10.3. The assay is described as above. The assay is classed as cell-based, NOD mouse. The note with it: peptide or preparation as antigen.
Description: as §1, §2, §3

The subject of another assay is soluble IA^g7. Put plainly: Peptide binding to IA^g7: competition with biotinylated HEL peptide. On the set-up: species or system NOD mouse. The note with it: competition with biotinylated pHEL 11 μM, pH 5.6, overnight. From the text:
FIG. 15B: A series of ChgA peptides tested for their ability to compete with a biotinylated HEL peptide for binding to soluble IA^g7. pS3-positive control peptide. IE^k moth cytochrome c-negative control peptide. N=2. Y axis: Percent of IA^g7-bound biotinylated HEL peptide as compared to IE^k. X axis: Log concentration of inhibitor peptide.
In order to confirm the unique binding register of the WE14 peptide, a series of peptides comprising N-terminal extensions and/or C-terminal deletions of WE14 were evaluated for their ability to stimulate the BDC-2.5 T cell clone (FIG. 6a) or to bind to IA^g7. See, FIG. 15A. […] See, FIG. 15B. Further, a pS3 mimotope was used as the positive control peptide and an irrelevant peptide from moth cytochrome c, pMCC, was the negative control peptide. The data were analyzed to determine the stimulatory or binding capacity of the peptides relative to WE14. See, FIG. 15C.
Soluble IA^g7 with covalently attached pHEL was treated with thrombin to cleave the linker attaching the peptide to the IA^g7 β chain. Kozono et al., “Production of soluble MHC class II proteins with covalently bound single peptides” Nature 369:151-154 (1994). Samples (0.5 μg) were incubated with a soluble biotinylated version of pHEL, Biotin-GGGMKRHGLDNYRGYSL (SEQ ID NO: 56) (11 μM), either alone or in the presence of various concentrations of potential competitors peptides, in 15 μL of pH 5.6 buffer overnight at room temperature. The sample was diluted to 100 μL of PBS in a well of a 96-well ELISA plate coated with an anti-IA^g7 monoclonal antibody, OX-6 (BD Pharmaceuticals). The captured IA^g7 was washed several times with PBS and the bound bio-pHEL detected with alkaline phosphatase coupled Extravadin (Sigma) and […].

In a further assay the test system is BDC-2.5 TCR. Briefly: Binding of fluorescent multimeric soluble BDC-2.5 TCR to IA^g7-peptide on insect cells (flow cytometry). On the set-up: species or system mouse. The note with it: oligomerized. From the text: FIG. 13B: Use of a fluorescent, oligomerized, soluble BDC-2.5 TCR to enrich from the library a virus encoding an IA^g7-mimotope (i.e., for example, pS3) that forms a strong ligand with a BDC-2.5 TCR.
The amino acids at p1, p2, p3, p5, p7 and p8 were fully randomized to all 20 amino acids. See, FIG. 13A. Insect cells were infected with the library at a multiplicity of infection of <1 such that most infected cells expressed a single member of the library. The few infected cells expressing an IA^g7-peptide combination capable of binding a fluorescent, soluble, multimeric version of BDC-2.5 TCR were isolated using flow cytometry. See, FIG. 13B, panel 1). These cells were used to create a new enriched viral stock. […]
The PCR DNA fragment encoding the library was cloned directly into baculovirus DNA already encoding the IA^g7 genes, attached via a linker to the N-terminus of the β chain. […] Insect cells infected with the library at a multiplicity of infection of <1 were analyzed by flow cytometry for cells that expressed IA^g7 (OX-6 Mab, BD-Pharmingen) and also bound a multivalent TCR reagent consisting of the soluble BDC-2.5 TCR captured by a biotinylated anti-Cα Mab, ADO-304, bound to Alexafluor-647 labeled streptavidin (Molecular Probes). […] The peptide sequence encoded in the positive clones was determined.

The next assay concerns BDC-2.5 T cell hybridoma. Put plainly: IL-2 production by T cell hybridoma stimulated with ICAM/B7 insect cells displaying IA^g7-peptide. The assay is classed as cell-based, mouse. The note with it: covalent IA^g7-peptide complex on B7/ICAM insect cells; 24 hrs. The procedure: (§4) FIG. 13C: Three BDC T cell hybridomas stimulated in culture either with: i) immobilized H597 anti-TCR Cβ Mab; ii) ICAM/B7 expressing SF9 cells infected with virus encoding IA^g7 with a HEL peptide; or ii) ICAM/B7 expressing SF9 cells infected with virus encoding IA^g7 with pS3. IL-2 production was assayed after 24 hrs.
(§5) T cell hybridomas bearing TCR from either the BCD-2.5, BDC-10.1 or BDC-5.10.3 T cell clones were tested for their ability to recognize the covalent IA^g7-p53 complex using B7/ICAM-expressing insect cells as artificial APCs. See, FIG. 13C; Crawford et al., “Mimotopes for alloreactive and conventional T cells in a peptide-MHC display library” PloS Biol 2:E90 (2004); and Crawford et al., “Use of baculovirus MHC/peptide display libraries to characterize T-cell receptor ligands” Immunol Rev 210: 156-170 (2006).
as §3

Assay [3] relates to BDC-10.1 T cell hybridoma. The description is as above. The assay is classed as cell-based, mouse. The note with it: covalent IA^g7-peptide complex on B7/ICAM insect cells; 24 hrs. As for the experimental part: as §4, §5, §3
For assay [4], the system named is BDC-5.10.3 T cell hybridoma. Described as above. The note with it: covalent IA^g7-peptide complex on B7/ICAM insect cells; 24 hrs. The assay is classed as cell-based, mouse. The procedure:
as §4, §5, §3

The test system of another assay is T cell clone PD-12.4.4. Briefly: IFNγ production by insulin-reactive control T cell clone (ELISA). The assay is classed as cell-based, NOD mouse. The note with it: negative control clone.
Description: as §1, §2
Antigenicity of islet cells, cellular and biochemical fractions, peptides, or insect cells expressing IA^g7-peptide constructs, was assessed through responses of T cell clones or hybridomas made by fusing T cell clones to the TCR^− version of T cell lymphoma, BW5147. […] IFNγ was measured by ELISA of culture supernatants. […]

Assay [5] has as its system T cell clone BDC-2.5. The note with it: Yoshida et al 2002; cited from earlier work.
Assay [6] has as its system T cell clone BDC-10.1. The note with it: Yoshida et al 2002; cited from earlier work.
Assay [7] has as its target WE14 peptide (…), natural cleavage product of chromogranin A (mouse). Put plainly: cell-based or functional assay.

Here are results for eight substances from patent publication US20120128646A1, “METHODS AND COMPOSITIONS FOR THE TREATMENT OF AUTOIMMUNE DISEASE” (priority 2009, published 2012).

“Also recorded” adds a separate entry of the source.

As to “EDKRWSRMD [ChgA aa354-362; ED9 = WD5 extended with EDKR]”, the “Stimulation of T cell clone BDC-2.5 (IFNγ response), result in words” value with T cell clone BDC-2.5 [1] is reported as “did not stimulate”; with T cell clone BDC-2.5 [1] (listed as ED9), “failed to stimulate”. The “Stimulation of T cell clone BDC-10.1 (IFNγ response), result in words” value with T cell clone BDC-10.1 [2] is recorded as “did not stimulate”. For the same substance, the “Stimulation of T cell clone BDC-5.10.3 (IFNγ response), result in words” value in the assay on T cell clone BDC-5.10.3 is listed as “did not stimulate”. In the assay on soluble IA^g7, the “IA^g7 binding, result in words” value was “did not bind”.
For the substance “RLGLWVRME [mimotope from baculovirus IA^g7-peptide library]”, the “Stimulation of T cell clone BDC-2.5 (IFNγ response), result in words” value is listed as “strongly stimulated” in the assay on T cell clone BDC-2.5 [1] and “maximally” with T cell clone BDC-2.5 [1] (listed as pS3). Also, the “Stimulation of T cell clone BDC-10.1 (IFNγ response), result in words” value in the assay on T cell clone BDC-10.1 [2] is recorded as “strongly stimulated”; in the assay on T cell clone BDC-10.1 [2] (listed as pS3), “maximally”. Further, the “Stimulation of T cell clone BDC-5.10.3 (IFNγ response), result in words” value with T cell clone BDC-5.10.3 is recorded as “strongly stimulated”; with T cell clone BDC-5.10.3 (listed as pS3), “maximally”. The “Binding of IA^g7-mimotope to BDC-2.5 TCR” value with BDC-2.5 TCR was “strong ligand”. The “IA^g7 binding, result in words” value in the assay with soluble IA^g7 was “higher affinity”. In the assay on BDC-2.5 T cell hybridoma, the “Activation of BDC-2.5 hybridoma (IL-2 production)” value is recorded as “maximally activated”. In addition, in assay [3], the “Activation of BDC-10.1 hybridoma (IL-2 production)” value is reported as “maximally activated”. Besides, in assay [4], the “Activation of BDC-5.10.3 hybridoma (IL-2 production)” value was “maximally activated”. For the same substance, the “Response of insulin-reactive T cell clone PD-12.4.4 (IFNγ), result in words” value in the assay with T cell clone PD-12.4.4 is on record as “not”.
Regarding “SHLVEALYLVCGERG [insulin peptide, reference compound]”, the “Response of insulin-reactive T cell clone PD-12.4.4 (IFNγ), result in words” value in the assay with T cell clone PD-12.4.4 is “responded”.
For “HRPIWARMD [peptide mimotope of Yoshida et al 2002]”, the “Mimotope activation of BDC-2.5” value in the assay with T cell clone BDC-2.5 [5] was “highly stimulatory; also recorded: activate”.
In the case of “WL11: WE14 truncated by 3 C-terminal amino acids (WSRMDQLAKEL)”, the “Stimulation of T cell clone BDC-2.5 (IFNγ response), result in words” value in the assay on T cell clone BDC-2.5 [1] is recorded as “decreasing stimulatory activity”. In addition, in the assay with soluble IA^g7, the “IA^g7 binding, result in words” value is “indistinguishable from the negative control peptide”.
Turning to “HIPIWARMD [peptide mimotope of Yoshida et al 2002]”, the “Mimotope activation of BDC-10.1” value in the assay with T cell clone BDC-10.1 [6] was “activate”.
In assay [7], “TCR of the T cell clone BDC-2.5 (on the T cell clone or on a hybridoma bearing this TCR)” gave a percentage of maximal IFN-γ response at 100 mg/ml β-membrane (% of maximal IFN-γ response) of 15 and a potency in activating the BDC clones, relative to the pS3 mimotope (fold less potent than pS3) of 1000.
Regarding “TCR of the T cell clone BDC-10.1 (on the T cell clone or on a hybridoma bearing this TCR)”, the potency in activating the BDC clones, relative to the pS3 mimotope (fold less potent than pS3) in [7] is 1000.
